In patent US6525001B1, “Substituted pyrimidine and pyridine herbicides” (Mid-American Commercialization Corporation, priority 1997, dated 2003):

Assays:
Test in all cases: Test B pre-/postemergence
Type in all cases: in vivo
Parameters in all cases: key: 0 is no effect; 10 is complete control
[1] = system: crabgrass (Digitaria sanguinalis)
How it was run: (§1)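 Compounds in a surfactant-containing, non-phytotoxic solvent blend are applied to freshly planted seed (preemergence) and, concurrently, to seedlings of 2 to 18 cm at 1–4 leaves (postemergence). Plants stay in the greenhouse twelve to sixteen days and are then scored visually from 0 (no effect) to 10 (complete control).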

[2] = system: corn (Zea mays)
How it was run: as §1

[3] = system: cocklebur (Xanthium strumarium)
How it was run: as §1

[4] = system: rape (Brassica napus)
How it was run: as §1

[5] = system: wheat (Triticum aestivum)
How it was run: as §1

[6] = system: pigweed (Amaranthus retroflexus)
How it was run: as §1

[7] = system: sugar beet (Beta vulgaris)
How it was run: as §1

[8] = system: broadleaf signalgrass (Brachiaria decumbens)
How it was run: as §1

[9] = system: bedstraw (Galium aparine)
How it was run: as §1

[10] = system: soybean (Glycine max)
How it was run: as §1

[11] = system: purple nutsedge (Cyperus rotundus)
How it was run: as §1

[12] = system: momingglory (Ipomoea hederacea)
How it was run: as §1

[13] = system: velvetleaf (Abutilon theophrasti)
How it was run: as §1

[14] = system: giant foxtail (Setaria faberii)
How it was run: as §1

[15] = Preemergence, Rate 62 g/ha, scale of 0 to 10

For `Cc1cnc(-n2ccc(C(F)(F)C(F)(F)F)n2)nc1C(=O)c1cccc(C(F)(F)F)c1` [Compound 68], the “Plant response rating, Crabgrass” value [1, 15] was 3, the “Crabgrass plant response rating” value ([1]; Rate 62 g/ha, Postemergence) was 5 and the “Crabgrass plant response rating” value ([1]; Rate 125 g/ha, Postemergence) was 8. The “Plant response rating, Crabgrass” value ([1]; Rate 125 g/ha, Preemergence) was 4, the “Plant response rating, Crabgrass” value ([1]; Rate 250 g/ha, Postemergence) was 8 and the “Plant response rating, Crabgrass” value ([1]; Rate 250 g/ha, Preemergence) was 9. The “Plant response rating, Crabgrass” value ([1]; Rate 500 g/ha, Postemergence) was 8, the “Plant response rating, Crabgrass” value ([1]; Rate 500 g/ha, Preemergence) was 10 and the “Plant response rating, Corn” value [2, 15] was 0. The “Corn plant response rating” value ([2]; Rate 62 g/ha, Postemergence) was 1, the “Corn plant response rating” value ([2]; Rate 125 g/ha, Postemergence) was 1 and the “Plant response rating, Corn” value ([2]; Rate 125 g/ha, Preemergence) was 1. For the same compound, the “Plant response rating, Corn” value ([2]; Rate 250 g/ha, Postemergence) was 2, the “Plant response rating, Corn” value ([2]; Rate 250 g/ha, Preemergence) was 1 and the “Plant response rating, Corn” value ([2]; Rate 500 g/ha, Postemergence) was 2. The “Plant response rating, Corn” value ([2]; Rate 500 g/ha, Preemergence) was 1, the “Plant response rating, Cocklebur” value [3, 15] was 0 and the “Cocklebur plant response rating” value ([3]; Rate 62 g/ha, Postemergence) was 3. The “Plant response rating, Cocklebur” value ([3]; Rate 250 g/ha, Postemergence) was 7, the “Plant response rating, Cocklebur” value ([3]; Rate 250 g/ha, Preemergence) was 2 and the “Plant response rating, Cocklebur” value ([3]; Rate 500 g/ha, Postemergence) was 7. For the same compound, the “Plant response rating, Cocklebur” value ([3]; Rate 500 g/ha, Preemergence) was 8, the “Plant response rating, Rape” value [4, 15] was 2 and the “Rape plant response rating” value ([4]; Rate 62 g/ha, Postemergence) was 6. The “Rape plant response rating” value ([4]; Rate 125 g/ha, Postemergence) was 6, the “Plant response rating, Rape” value ([4]; Rate 125 g/ha, Preemergence) was 3 and the “Plant response rating, Rape” value ([4]; Rate 250 g/ha, Preemergence) was 4. The “Plant response rating, Rape” value ([4]; Rate 500 g/ha, Postemergence) was 7, the “Plant response rating, Rape” value ([4]; Rate 500 g/ha, Preemergence) was 8 and the “Plant response rating, Wheat” value [5, 15] was 1. For the same compound, the “Wheat plant response rating” value ([5]; Rate 62 g/ha, Postemergence) was 2, the “Wheat plant response rating” value ([5]; Rate 125 g/ha, Postemergence) was 2 and the “Plant response rating, Wheat” value ([5]; Rate 125 g/ha, Preemergence) was 1. The “Plant response rating, Wheat” value ([5]; Rate 250 g/ha, Postemergence) was 2, the “Plant response rating, Wheat” value ([5]; Rate 250 g/ha, Preemergence) was 2 and the “Plant response rating, Wheat” value ([5]; Rate 500 g/ha, Postemergence) was 4. The “Plant response rating, Wheat” value ([5]; Rate 500 g/ha, Preemergence) was 4, the “Plant response rating, Redroot pigweed” value [6, 15] was 8 and the “Redroot pigweed plant response rating” value ([6]; Rate 62 g/ha, Postemergence) was 9. The “Redroot pigweed plant response rating” value ([6]; Rate 125 g/ha, Postemergence) was 10, the “Plant response rating, Redroot pigweed” value ([6]; Rate 125 g/ha, Preemergence) was 9 and the “Plant response rating, Redroot pigweed” value ([6]; Rate 250 g/ha, Postemergence) was 10. The “Plant response rating, Redroot pigweed” value ([6]; Rate 250 g/ha, Preemergence) was 10, the “Plant response rating, Redroot pigweed” value ([6]; Rate 500 g/ha, Postemergence) was 10 and the “Plant response rating, Redroot pigweed” value ([6]; Rate 500 g/ha, Preemergence) was 10. The “Plant response rating, Sugarbeets” value [7, 15] was 9, the “Sugarbeets plant response rating” value ([7]; Rate 62 g/ha, Postemergence) was 10 and the “Sugarbeets plant response rating” value ([7]; Rate 125 g/ha, Postemergence) was 10. The “Plant response rating, Sugarbeets” value ([7]; Rate 125 g/ha, Preemergence) was 10, the “Plant response rating, Sugarbeets” value ([7]; Rate 250 g/ha, Postemergence) was 10 and the “Plant response rating, Sugarbeets” value ([7]; Rate 250 g/ha, Preemergence) was 10. For the same compound, the “Plant response rating, Sugarbeets” value ([7]; Rate 500 g/ha, Postemergence) was 10, the “Plant response rating, Sugarbeets” value ([7]; Rate 500 g/ha, Preemergence) was 10 and the “B. signalgrass plant response rating” value ([8]; Rate 62 g/ha, Postemergence) was 2. The “B. signalgrass plant response rating” value ([8]; Rate 62 g/ha, Preemergence) was 5, the “B. signalgrass plant response rating” value ([8]; Rate 125 g/ha, Postemergence) was 3 and the “Plant response rating, B. signalgrass” value ([8]; Rate 125 g/ha, Preemergence) was 8. For the same compound, the “Plant response rating, B. signalgrass” value ([8]; Rate 250 g/ha, Postemergence) was 3, the “Plant response rating, B. signalgrass” value ([8]; Rate 250 g/ha, Preemergence) was 9 and the “Plant response rating, B. signalgrass” value ([8]; Rate 500 g/ha, Postemergence) was 5. For the same compound, the “Plant response rating, B. signalgrass” value ([8]; Rate 500 g/ha, Preemergence) was 10, the “Plant response rating, Bedstraw” value [9, 15] was 3 and the “Bedstraw plant response rating” value ([9]; Rate 62 g/ha, Postemergence) was 5. For the same compound, the “Bedstraw plant response rating” value ([9]; Rate 125 g/ha, Postemergence) was 6, the “Plant response rating, Bedstraw” value ([9]; Rate 125 g/ha, Preemergence) was 5 and the “Plant response rating, Bedstraw” value ([9]; Rate 250 g/ha, Postemergence) was 9. For the same compound, the “Plant response rating, Bedstraw” value ([9]; Rate 250 g/ha, Preemergence) was 6, the “Plant response rating, Bedstraw” value ([9]; Rate 500 g/ha, Postemergence) was 10 and the “Plant response rating, Bedstraw” value ([9]; Rate 500 g/ha, Preemergence) was 6. For the same compound, the “Plant response rating, Soybean” value [10, 15] was 0, the “Soybean plant response rating” value ([10]; Rate 62 g/ha, Postemergence) was 3 and the “Soybean plant response rating” value ([10]; Rate 125 g/ha, Postemergence) was 5. For the same compound, the “Plant response rating, Soybean” value ([10]; Rate 125 g/ha, Preemergence) was 1, the “Plant response rating, Soybean” value ([10]; Rate 250 g/ha, Postemergence) was 7 and the “Plant response rating, Soybean” value ([10]; Rate 250 g/ha, Preemergence) was 2. The “Plant response rating, Soybean” value ([10]; Rate 500 g/ha, Postemergence) was 7, the “Plant response rating, Soybean” value ([10]; Rate 500 g/ha, Preemergence) was 2 and the “Plant response rating, Nutsedge” value [11, 15] was 0. For the same compound, the “Nutsedge plant response rating” value ([11]; Rate 62 g/ha, Postemergence) was 0, the “Nutsedge plant response rating” value ([11]; Rate 125 g/ha, Postemergence) was 0 and the “Plant response rating, Nutsedge” value ([11]; Rate 125 g/ha, Preemergence) was 0. The “Plant response rating, Nutsedge” value ([11]; Rate 250 g/ha, Postemergence) was 0, the “Plant response rating, Nutsedge” value ([11]; Rate 250 g/ha, Preemergence) was 0 and the “Plant response rating, Nutsedge” value ([11]; Rate 500 g/ha, Preemergence) was 0. The “Plant response rating, Morningglory” value [12, 15] was 3, the “Morningglory plant response rating” value ([12]; Rate 62 g/ha, Postemergence) was 2 and the “Morningglory plant response rating” value ([12]; Rate 125 g/ha, Postemergence) was 8. For the same compound, the “Plant response rating, Morningglory” value ([12]; Rate 125 g/ha, Preemergence) was 3, the “Plant response rating, Morningglory” value ([12]; Rate 250 g/ha, Postemergence) was 10 and the “Plant response rating, Morningglory” value ([12]; Rate 250 g/ha, Preemergence) was 5. The “Plant response rating, Morningglory” value ([12]; Rate 500 g/ha, Postemergence) was 10, the “Plant response rating, Morningglory” value ([12]; Rate 500 g/ha, Preemergence) was 9 and the “Plant response rating, Velvetleaf” value [13, 15] was 2. For the same compound, the “Velvetleaf plant response rating” value ([13]; Rate 62 g/ha, Postemergence) was 6, the “Velvetleaf plant response rating” value ([13]; Rate 125 g/ha, Postemergence) was 7 and the “Plant response rating, Velvetleaf” value ([13]; Rate 125 g/ha, Preemergence) was 7. The “Plant response rating, Velvetleaf” value ([13]; Rate 250 g/ha, Postemergence) was 7, the “Plant response rating, Velvetleaf” value ([13]; Rate 250 g/ha, Preemergence) was 7 and the “Plant response rating, Velvetleaf” value ([13]; Rate 500 g/ha, Postemergence) was 8. For the same compound, the “Plant response rating, Velvetleaf” value ([13]; Rate 500 g/ha, Preemergence) was 8, the “Plant response rating, Giant foxtail” value [14, 15] was 3 and the “Giant foxtail plant response rating” value ([14]; Rate 62 g/ha, Postemergence) was 1. The “Giant foxtail plant response rating” value ([14]; Rate 125 g/ha, Postemergence) was 2, the “Plant response rating, Giant foxtail” value ([14]; Rate 125 g/ha, Preemergence) was 6 and the “Plant response rating, Giant foxtail” value ([14]; Rate 250 g/ha, Postemergence) was 2. For the same compound, the “Plant response rating, Giant foxtail” value ([14]; Rate 250 g/ha, Preemergence) was 9, the “Plant response rating, Giant foxtail” value ([14]; Rate 500 g/ha, Postemergence) was 3 and the “Plant response rating, Giant foxtail” value ([14]; Rate 500 g/ha, Preemergence) was 10.
